Test results taken from patent publication US20250353857A1, “COMPOUND ACTIVE AS INHIBITOR OF COLONY STIMULATION FACTOR-1 RECEPTOR (CSF-1 R)” (priority 2022, published 2025).
Like-named read-outs stand apart in the source and are kept apart here.

Tests used:
CSF1R = CSF1R (Homo sapiens (Human), UniProt P07333); experiment: CSF1R enzymatic inhibitory assay (Invitrogen Z'-LYTE, FRET); format: biochemical;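 further: kinase phosphorylates a tyrosine on a coumarin/fluorescein FRET peptide, a protease cuts peptide left unphosphorylated, inhibition quantified from the donor-to-acceptor emission ratio with excitation at 400 nm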
[1] = tested on: P-MAPK (ERK1/2) in CSF-1 stimulated bone-marrow derived macrophages; experiment: Effect of CSF1R inhibitors on MAPK signaling in mouse bone-marrow derived macrophages; format: cell-based; settings: fold change relative to PLX3397 (IC50 inhibitor/IC50 PLX3397), P-MAPK/total MAPK, 10 ng/mL CSF-1
[2] = Z'-LYTE assay, ATP concentration equal to Km, average of at least 2 titration curves, read-out: CSF1R (IC50)

CSF1R, sequence (P07333 20-972): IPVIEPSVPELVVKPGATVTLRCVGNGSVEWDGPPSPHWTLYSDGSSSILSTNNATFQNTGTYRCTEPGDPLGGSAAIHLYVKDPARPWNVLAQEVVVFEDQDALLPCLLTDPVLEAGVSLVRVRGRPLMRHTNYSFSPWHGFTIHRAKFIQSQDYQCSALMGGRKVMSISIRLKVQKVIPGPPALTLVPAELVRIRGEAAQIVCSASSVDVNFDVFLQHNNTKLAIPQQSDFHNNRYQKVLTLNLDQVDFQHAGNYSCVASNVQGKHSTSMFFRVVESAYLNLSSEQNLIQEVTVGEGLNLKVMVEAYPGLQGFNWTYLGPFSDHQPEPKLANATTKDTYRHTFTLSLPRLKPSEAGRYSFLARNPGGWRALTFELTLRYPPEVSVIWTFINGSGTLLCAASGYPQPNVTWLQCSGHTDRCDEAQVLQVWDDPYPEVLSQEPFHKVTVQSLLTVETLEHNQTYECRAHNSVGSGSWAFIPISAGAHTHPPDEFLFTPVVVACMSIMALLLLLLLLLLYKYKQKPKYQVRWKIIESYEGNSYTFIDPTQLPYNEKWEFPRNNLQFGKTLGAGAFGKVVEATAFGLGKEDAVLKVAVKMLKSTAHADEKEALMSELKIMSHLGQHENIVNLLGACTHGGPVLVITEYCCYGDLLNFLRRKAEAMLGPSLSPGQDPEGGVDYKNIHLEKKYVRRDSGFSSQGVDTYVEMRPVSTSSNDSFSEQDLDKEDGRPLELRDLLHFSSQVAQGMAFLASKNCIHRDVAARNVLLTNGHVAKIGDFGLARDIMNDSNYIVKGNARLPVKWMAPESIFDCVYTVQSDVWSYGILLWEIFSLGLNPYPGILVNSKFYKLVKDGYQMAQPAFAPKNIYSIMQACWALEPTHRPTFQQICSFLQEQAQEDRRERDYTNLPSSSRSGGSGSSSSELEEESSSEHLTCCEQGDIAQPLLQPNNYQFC

Row | Structure (SMILES) | IC50 (CSF1R) [nM] | MAPK (fold) [1] [fold] | IC50 (CSF1R; [2]) [nM]
1 | COc1cccc(CN(C)c2ncnc3[nH]c(-c4ccc(CCC(=O)O)cc4)cc23)c1 [FAB01-23, 3-(4-(4-((3-Methoxybenzyl)(methyl)amino)-7H-pyrrolo[2,3-d]pyrimidin-6-yl)phenyl)propanoic acid] | 0.2 | >5 | –
2 | COc1ccc(CN(C)c2ncnc3[nH]c(-c4ccc(CCC(=O)O)cc4)cc23)cc1OC [FAB 01-24, 3-(4-(4-((3,4-Dimethoxybenzyl)(methyl)amino)-7H-pyrrolo[2,3-d]pyrimidin-6-yl)phenyl)propanoic acid] | – | >5 | 0.6
3 | CN(Cc1ccccc1)c1ncnc2[nH]c(-c3ccccc3CO)nc12 [JKS02-027, (2-(6-(Benzyl(methyl)amino)-9H-purin-8-yl)phenyl)methanol] | – | >3 | 1.2 ± 0.2
4 | Cc1cccc(CN(C)c2ncnc3[nH]c(-c4ccc(C5CCCC(=O)O5)cc4)cc23)c1 (centres unmarked) [LR-1-124, 6-(4-(4-(Methyl(3-methylbenzyl)amino)-7H-pyrrolo[2,3-d]pyrimidin6-yl)phenyl)tetrahydro-2H-pyran-2-one] | – | 2.1 | 0.8 ± 0.1
5 | CN(Cc1ccc(F)cc1)c1ncnc2[nH]c(-c3ccc(CO)cc3)nc12 [TIA02-134, N-Methyl-N-(4-fluorobenzyl)-8-(4-(hydroxymethyl)phenyl)-9H-purin-6-amine] | – | >3 | 8.8 ± 0.3
6 | CN(Cc1cccnc1)c1ncnc2[nH]c(-c3ccc(CO)cc3)nc12 [TIA02-166, N-Methyl-N-(pyridin-3-ylmethyl)-8-(4-(hydroxymethyl)phenyl)-9H-purin-6-amine] | – | >3 | 2.1 ± 0.4
7 | Cc1cccc(CN(C)c2ncnc3[nH]c(-c4ccc(CO)cc4)nc23)c1 [TIA02-172, N-Methyl-N-(3-methylbenzyl)-8-(4-(hydroxymethyl)phenyl)-9H-purin-6-amine] | – | >5 | 1.5 ± 0.2
8 | OCc1ccc(-c2nc3c(N4CCCC4c4ccccc4)ncnc3[nH]2)cc1 (centres unmarked) [TIA02-176, 8-(4-(Hydroxymethyl)phenyl)-6-(2-phenylpyrrolidin-1-yl)-9H-purine] | – | >3 | 1.9 ± 0.2
9 | CN(CC1CCCCC1)c1ncnc2[nH]c(-c3ccc(CO)cc3)nc12 [TIA03-024, N-Methyl-N-(cyclohexylmethyl)-8-(4-(hydroxymethyl)phenyl)-9H-purin-6-amine] | – | 0.9 | 0.7
10 | COc1ccccc1CN(C)c1ncnc2[nH]c(-c3ccc(CO)cc3)nc12 [TIA03-106, N-(2-Methoxybenzyl)-N-methyl-8-(4-(hydroxymethyl)phenyl)-9H-purin-6-amine] | – | >3 | 4.2 ± 1.4
11 | CN(CC1CCCC1)c1ncnc2[nH]c(-c3ccc(CO)cc3)nc12 [TIA03-188, N-Methyl-N-(cyclopentylmethyl)-8-(4-(hydroxymethyl)phenyl)-9H-purin-6-amine] | – | 0.6 | 0.3 ± 0.2
12 | CN(Cc1ccccc1O)c1ncnc2[nH]c(-c3ccc(CO)cc3)nc12 [TIA04-009, N-Methyl-N-(2-hydroxybenzyl)-8-(4-(hydroxymethyl)phenyl)-9H-purin-6-amine] | – | >3 | 2.3 ± 0.3
13 | CN(CC1CCOC1)c1ncnc2[nH]c(-c3ccc(CO)cc3)nc12 (centres unmarked) [TIA04-049, N-Methyl-N-(tetrahydrofuran-3-ylmethyl)-8-(4-(hydroxymethyl)phenyl)-9H-purin-6-amine] | – | >3 | 4.6 ± 0.6
14 | CN(CC1CCOCC1)c1ncnc2[nH]c(-c3ccc(CO)cc3)nc12 [TIA04-051, N-Methyl-N-(oxan-4-ylmethyl)-8-(4-(hydroxymethyl)phenyl)-9H-purin-6-amine] | – | 1 | 0.3
15 | CN(Cc1cccnc1)c1ncnc2[nH]c(-c3ccccc3)nc12 [TIA109, N-Methyl-8-phenyl-N-(pyridin-3-ylmethyl)-9H-purin-6-amine] | – | – | 2.2
